# Laboratory results reported in ChEMBL document CHEMBL1153365, “Identification of potent pyrimidine inhibitors of phosphodiesterase 7 (PDE7) and their ability to inhibit T cell proliferation” (Bioorg Med Chem Lett, 2009).
# Key:
# [1] = Inhibition of PDE7
# [2] = Inhibition of PDE1
# [3] = Inhibition of PDE3
# [4] = Inhibition of PDE4
# [5] = molecular target: cGMP-specific 3',5'-cyclic phosphodiesterase (Homo sapiens, UniProt O76074); assay: Inhibition of PDE5
# PBMC [6] = assay: Immunosuppressant activity in PBMC assessed as antiproliferation after 3 days by [3H]thymidine incorporation assay; assay type: functional, cell-based; conditions: Homo sapiens
# PBMC [7] = assay: Immunosuppressant activity in PBMC assessed as cytotoxicity; assay type: functional, cell-based; conditions: Homo sapiens
# [8] = Aqueous solubility at pH 6.5; assay type: physicochemical
# Splenocyte = assay: Immunosuppressant activity in wild type splenocyte assessed as antiproliferation; assay type: functional, cell-based; conditions: Mus musculus
# [9] = Immunosuppressant activity in PDE7 knockout splenocyte assessed as antiproliferation; assay type: functional, cell-based
SMILES,IC50 [1] [µM],IC50 [2] [µM],IC50 [3] [µM],IC50 [4] [µM],IC50 [5] [µM],IC50 (PBMC [6]) [µM],IC50 (PBMC [7]) [µM],solubility [8] [µg/mL],IC50 (Splenocyte) [µM],IC50 [9] [µM]
CCOC(=O)c1sc(Nc2nc(NCc3ccc(S(N)(=O)=O)cc3)c3c(ncn3CC)n2)nc1C,0.01,–,–,–,–,–,–,–,–,–
CCOC(=O)c1sc(Nc2nc(N3CCNCC3)c3c(n2)N(Cc2cc(OC)c(OC)c(OC)c2)CC3)nc1C,0.006,–,–,–,–,–,–,–,–,–
CCOC(=O)c1sc(Nc2nccc(NCc3ccc(S(N)(=O)=O)cc3)n2)nc1C,0.22,–,–,–,–,–,–,–,–,–
CCOC(=O)c1sc(Nc2nc(N3CCC(N(C)C)CC3)cc(N3CCCC(CO)C3)n2)nc1C (stereo not given),0.12,11,> 50,9.3,> 10,5,> 25,> 20,–,–
CCOC(=O)c1sc(Nc2nc(N3CCC(O)CC3)cc(N3CCC(N(C)C)CC3)n2)nc1C,0.076,23,> 50,> 10,> 10,1.5,> 25,20,–,–
CCOC(=O)c1sc(Nc2nc(N3CCC(O)CC3)cc(N3CCC(O)CC3)n2)nc1C,0.063,4.9,20,3.2,0.7,0.12,> 25,20,0.21,0.15
CCOC(=O)c1sc(Nc2nc(N3CCOCC3)cc(N3CCC(N(C)C)CC3)n2)nc1C,0.13,15,13,9.5,> 10,2,> 25,> 20,–,–
CCOC(=O)c1sc(Nc2nc(N3CCC(N(C)C)CC3)cc(N3CCNC(C(N)=O)C3)n2)nc1C (stereo not given),0.082,23,> 50,8,6.5,3.1,> 25,> 20,–,–
CCOC(=O)c1sc(Nc2nc(NCc3ccc(OC)c(OC)c3)cc(N3CCNCC3)n2)nc1C,0.031,> 10,8,2.3,0.32,1.2,12,> 20,–,–
CCOC(=O)c1sc(Nc2nc(N3CCN(C)CC3)cc(N3CCN(CCN(C)C)CC3)n2)nc1C,0.056,27,19,9.4,> 10,2.2,15,> 20,–,–
CCOC(=O)c1sc(Nc2nc(N(C)Cc3cc(OC)c(OC)c(OC)c3)cc(N3CCNCC3)n2)nc1C,0.01,7.9,22,3.2,7.6,0.45,14,> 20,–,–
CCOC(=O)c1sc(Nc2nc(NCc3ccc(S(N)(=O)=O)cc3)cc(N3CCNCC3)n2)nc1C,0.01,4.1,2.8,0.22,0.072,7.2,> 25,20,–,–
CCOC(=O)c1sc(Nc2nc(N(C)Cc3cc(OC)c(OC)c(OC)c3)cc(N3CCN(C)CC3)n2)nc1C,0.039,4.1,27,5.1,5.2,0.69,> 25,> 20,–,–
CCOC(=O)c1sc(Nc2nc(NC)cc(NCc3ccc(S(N)(=O)=O)cc3)n2)nc1C,0.1,> 10,> 50,0.03,0.065,0.5,> 25,–,–,–
CCOC(=O)c1sc(Nc2nc(N3CCC(N(C)C)CC3)cc(N3CCN(C)CC3)n2)nc1C,0.083,> 50,46,> 10,> 10,2.5,15,> 20,–,–
